Where two headings read alike, the source gives them in different places. Where a SMILES comes first, the peptide text is derived from it. [ ]: non-standard residue; d: D form. ξ: configuration not given here. ξαMeF = CC(N)(Cc1ccccc1)C(=O)O; Aib = CC(C)(N)C(=O)O
Experiments:
[1] = system: DP BB rats (Diabetes-Prone BioBreeding rats); test: Retinal function by scotopic full-field ERG (SOPs) in diabetes-prone BioBreeding rats; conditions: daily s.c., peptide groups E, F, insulin alone group C, peptide+insulin group D
Description: (§1) The efficacy of formulation 3, described in example 1, in the treatment of the retinal vascular alterations associated with diabetes, was evaluated using as experimental model DP BB rats (Diabetes-Prone BioBreeding rats, M&B Bomholtvej, Denmark), analyzing the retinal function of the treated animals by electroretinography (ERG) and the state of vascularization of the retina by quantitative immunohistochemical techniques.
(§2) 60 3-week old DP BB rats of both sexes (30 male and 30 female) were used. […] The animals were observed from the 3rd to 30th weeks of life, monitoring various parameters, including weight, blood glucose, urine glucose and blood insulin. In particular, the onset of diabetes was evaluated by measuring blood glucose with the One-Touch profile (LifeScan, Milpitas, Calif.) twice a week, and every day from the 13th week; urine glucose with Clinistix (Bayer Diagnostica, Basingstoke, United Kingdom), twice a week; insulin levels twice a week, with an RIA Kit (BioRad, Milan, Italy). […]
(§3) The retinal functionality of the animals in each group was evaluated by ERG before euthanasia and removal of the retinas for quantitative histochemical analysis.
(§4) Retinal functionality was evaluated by ERG, using a scotopic full-field ERG. […] The wave amplitude was measured at a fixed time of 8 ms from the stimulus, to minimise non-photoreceptor contamination. […]

[2] = system: DP BB rats (Diabetes-Prone BioBreeding rats); test: CD31 immunohistochemistry and quantitative analysis of neovascular tuft formations in retinas of DP BB rats; format: in vivo, rat; conditions: daily s.c., peptide groups E, F, insulin alone group C, peptide+insulin group D
Description: The state of vascularization of the retina of the treated animals was studied on the whole retinas, using antibodies directed against CD31 (BD Biosciences, San Diego, Calif., USA), an important marker for the endothelial cells. The immunohistochemical tests on the retinas and quantitative analysis of the neovascular tuft formations, vascular and avascular areas, were conducted as reported in the literature (Exp Eye Res. 2013; 111:27-35; Invest Ophthalmol Vis Sci. 2012; 53:2181-2192; J Neurochem. 2011; 119:1317-1329; Invest Ophthalmol Vis Sci. 2006; 47:2125-2134). […]
The retinal vascularization images were acquired with an epifluorescence microscope (Eclipse E800; Nikon Corp., Amsterdam, Netherlands) using a digital camera converter (SD-Filc camera; Nikon Corp.). The electronic images were processed with image-processing software (Adobe Photoshop; Adobe Systems, Inc., Mountain View, Calif., USA) to allow quantitative analysis of the results. For each experimental condition, the quantitative data originated from 20 retinas of 10 different rats.
Table 3—Immunohistochemical tests on retinas and quantitative analysis of neovascular tuft formations. […] The electronic images were processed with image-processing software (Adobe Photoshop; Adobe Systems, Inc., Mountain View, Calif., USA) to allow quantitative analysis of the results. […]

[3] = system: SD-STZ rats (Sprague-Dawley rats rendered diabetic with streptozotocin); test: Retinal function by ERG (SOPs) in rats rendered diabetic with streptozotocin; conditions: daily administration, peptide groups C and E, insulin alone printed as groups B and D
Description: (§5) The severity of the diabetic state was evaluated by daily monitoring of body weight, clinical signs and blood glucose levels.
(§6) The dose of STZ was prepared at the time of use by dissolving the compound in 0.05M citrate buffer, pH 4.5. For the STZ administration, the animals were placed in the dorsal position and the injection site was disinfected and buffered with an iodine-povidone solution; the i.p. injection was performed in the caudal abdominal cavity of the rats, using a sterile 25 g needle. The severity of the diabetes caused by administration of STZ was monitored daily, evaluating blood glucose levels with the One-Touch profile (LifeScan, Milpitas, Calif.), every day; urine glucose with Clinistix (Bayer Diagnostica, Basingstoke, United Kingdom), twice a week; insulin levels, twice a week, with an RIA Kit (BioRad, Milan, Italy).
(§7) 5) subcutaneously twice a day. The retinal functionality of the animals in each group was evaluated by ERG before euthanasia and removal of the retinas for quantitative histochemical analysis.
(§8) Retinal function was evaluated by ERG, as reported in detail in example 2.
(§9) The study design involved 5 groups of 10 rats, 5 male and 5 female. […]

[4] = system: SD-STZ rats (Sprague-Dawley rats rendered diabetic with streptozotocin); test: Immunohistochemistry and quantitative analysis of neovascular tuft formations in retinas of SD-STZ rats; format: in vivo, rat; conditions: daily administration, peptide groups C and E, insulin alone group D
Description: 5) subcutaneously twice a day.
For each experimental condition, the quantitative data originated from 20 retinas of 10 different rats.
Table 5—Immunohistochemical tests on retinas and quantitative analysis of neovascular tuft formations. The state of vascularization of the retina of the treated animals was studied as reported in example 2. For each experimental condition, the quantitative data originated from 20 retinas of 10 different rats. […] The areas of neovascularization are expressed as the ratio between the area of neovascularization present in the animals which are not yet diabetic (Group A≈0.1% of the retinal area) and that of the group. […] 5) subcutaneously twice a day.

[5] = system: DP BB rats (Diabetes-Prone BioBreeding rats); conditions: rat, in vivo, sc
Description: as §1, §2, §3, §4

[6] = system: SD-STZ rats (Sprague-Dawley rats rendered diabetic with streptozotocin); conditions: rat, in vivo
Description: as §5, §6, §7, §8, §9

Compound: insulin
- effect on retinal vascular damage / eyesight, in words (Table 2) [1]: causes major retinal vascular damage
- effect on retinal vascular damage / NTA, in words (Table 3) [2]: causes a major increase in NTA
- effect on retinal vascular damage, in words (Table 4) [3]: gives rise to major retinal vascular damage
- effect on retinal vascular damage / NTA, in words (Table 5) [4]: leads to a major increase in NTA

Compound: CC(=O)N[C@@H](CCCNC(=N)N)C(=O)NC(C)(C)C(=O)N[C@@H](CCCNC(=N)N)C(=O)NC(C)(Cc1ccccc1)C(N)=O (stereo partly drawn) [Ac-Arg-Aib-Arg-α(Me)Phe-NH2] (Ac-R[Aib]R[ξαMeF]-NH2)
- effect on retinal vascular damage / eyesight, in words (Table 2) [5]: prevent the formation of retinal vascular damage

Compound: CC(=O)NC(C)(C)C(=O)N[C@@H](CCCNC(=N)N)C(=O)NC(C)(C)C(=O)N[C@@H](CCCNC(=N)N)C(=O)NC(C)(Cc1ccccc1)C(N)=O (stereo partly drawn) [Ac-Aib-Arg-Aib-Arg-α(Me)Phe-NH2] (Ac-[Aib]R[Aib]R[ξαMeF]-NH2)
- effect on retinal vascular damage, in words (Table 4) [6]: prevent ab initio the formation of retinal vascular damage

Source: US20180326014A1, “PHARMACEUTICAL FORMULATIONS FOR THE TREATMENT OF DIABETES” (KALEYDE PHARMACEUTICALS AG, priority 2016, published 2018)
